# How the values were obtained:
# [1] = Clearance in hepatocytes, cyno; type: in vitro ADME; conditions: cynomolgus monkey, read-out: CLint, Cyno (L/h/kg) ± SD (converted)
# Description: (§1) Deuterated compounds were compared to their non-deuterated parent counterparts to determine the impact of deuteration on clearance results
# [2] = Clearance in microsomes, human; type: in vitro ADME; conditions: 1 microM, read-out: CLint, Human (L/h/kg) ± SD (converted)
# Description: as §1
# [3] = Clearance in microsomes, dog; type: in vitro ADME; conditions: 1 microM, read-out: CLint, Dog (L/h/kg) ± SD (converted)
# Description: as §1
# BACE1 = BACE1 (Homo sapiens, UniProt P56817); experiment: BACE1 binding assay (SPA-based); set-up: biotin (biotinylated form); made in house; host or cells: Freestyle HEK293 cells; conditions: pH 4.5, 10 nM radioligand
# Chain of BACE1 (P56817 46-501): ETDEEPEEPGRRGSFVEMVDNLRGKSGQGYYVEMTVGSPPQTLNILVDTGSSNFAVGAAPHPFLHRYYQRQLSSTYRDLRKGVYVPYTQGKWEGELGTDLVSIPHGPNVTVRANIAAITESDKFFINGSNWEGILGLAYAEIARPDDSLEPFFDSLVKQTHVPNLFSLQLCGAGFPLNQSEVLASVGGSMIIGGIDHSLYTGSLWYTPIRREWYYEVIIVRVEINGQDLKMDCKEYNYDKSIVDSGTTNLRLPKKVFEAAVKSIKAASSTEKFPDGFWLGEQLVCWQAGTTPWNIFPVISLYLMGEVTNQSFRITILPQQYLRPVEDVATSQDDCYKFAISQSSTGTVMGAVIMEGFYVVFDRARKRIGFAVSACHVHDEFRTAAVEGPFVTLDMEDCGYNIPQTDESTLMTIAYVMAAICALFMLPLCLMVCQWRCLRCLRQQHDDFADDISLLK
# Procedure: The binding assay was performed as SPA-based assay using a biotinylated form of human BACE1 recombinantly expressed and subsequently purified from Freestyle HEK293 cells. The binding assay was run in a 50 mM sodium acetate buffer, pH 4.5 containing 50 mM NaCl and 0.03% Tween-20 in white clear bottom 384 plates (Corning #3653). […] The plates were incubated for one hour at room temperature and counted in a Wallac Trilux counter. Total and non-specific binding were determined using buffer and 1 μM (final concentration) of the high affinity BACE1 reference inhibitor (S)-6-[3-chloro-5-(5-prop-1-ynyl-pyridin-3-yl)-thiophen-2-yl]-2-imino-3,6-dimethyl-tetrahydro-pyrimidin-4-one, respectively. For each test compound, a IC50 value (the concentration mediating 50% inhibition of the specific binding of the radioligand) was determined from concentration-response curve and used to calculate the Ki from the equation Ki=IC50/(1+L/Kd), where L and Kd are the final concentration of the radioligand used in the assay and the dissociation constant of the radioligand, respectively. The Kd of the radioligand was determined from saturation binding experiments.
# P-gp (MDR1) = experiment: MDCK-MDR1 assay (permeability, efflux ratio); type: in vitro ADME; conditions: dog, Papp BA/Papp AB
# Procedure: The permeability of the test compounds was assessed in MDCK-MDR1 cells that were cultured to confluency (4-6 days) in a 96 transwell plate. Test compounds were diluted with the transport buffer (HBSS+1% BSA) to a concentration of 0.5 μM and applied to the apical or basolateral side of the cell monolayer. Permeation of the test compounds from A to B direction or B to A direction was determined in triplicate over a 60-minute incubation time at 37° C. and 5% CO2 with a relative humidity of 95%. Test compounds were quantified by LC-MS/MS analysis based on the peaks area ratios of analyte/IS in both the receiver and donor wells of the transwell plate.
# The apparent permeability coefficient Papp (cm/s) was calculated using the equation: […]
# Where dCr/dt is the cumulative concentration of compound in the receiver chamber as a function of time (μM/s); Vr is the solution volume in the receiver chamber (0.05 mL on the apical side; 0.25 mL on the basolateral side); A is the surface area for the transport, i.e. 0.0804 cm^2 for the area of the monolayer; CO is the initial concentration in the donor chamber (μM).
# Compounds are classified Pgp substrates when efflux ratio (Papp BA/Papp AB) is ≥2.
# [4] = Clearance in hepatocytes, dog; type: in vitro ADME; conditions: read-out: CLint, Dog (L/h/kg) ± SD (converted)
# Description: as §1
# [5] = Clearance in hepatocytes, human; type: in vitro ADME; conditions: read-out: CLint, Human (L/h/kg) ± SD (converted)
# Description: as §1
compound,measurement,setting,value
"[2H]C([2H])([2H])Oc1cnc(C(=O)Nc2ccc(F)c([C@]3(C)CC[C@@](F)(CF)C(N)=N3)c2)cn1 [Example 1, N-(3-((2S,5S)-6-amino-5-fluoro-5-(fluoromethyl)-2-methyl-2,3,4,5-tetrahydropyridin-2-yl)-4-fluorophenyl)-5-(methoxy-d3)pyrazine-2-carboxamide]",CLint scaled at 0.1 µM,[1]; 0.1 microM,75 L/h/kg
same,CLint scaled at 0.3 µM,[1]; 0.3 microM,74 L/h/kg
same,CLint scaled at 1 µM,[1]; 1 microM,20 L/h/kg
same,CLint scaled at 1 µM,[2],0.2 L/h/kg
same,CLint scaled at 1 µM,[3],5 L/h/kg
same,Ki,BACE1,17 nM
same,"efflux ratio at 60 min, 0.5 μM",P-gp (MDR1),1.39
same,CLint scaled at 0.1 µM,[4]; 0.1 microM,34 L/h/kg
same,CLint scaled at 0.3 µM,[4]; 0.3 microM,25 L/h/kg
same,CLint scaled at 1 µM,[4]; 1 microM,11 L/h/kg
same,CLint scaled at 0.1 µM,[5]; 0.1 microM,< 0.1 L/h/kg
same,CLint scaled at 0.3 µM,[5]; 0.3 microM,< 0.1 L/h/kg
same,CLint scaled at 1 µM,[5]; 1 microM,< 0.1 L/h/kg

# — patent US20180186769A1, “6-AMINO-5-FLUORO-5-(FLUOROMETHYL)-2,3,4,5-TETRAHYDROPYRIDIN-2-YL-PHENYL-5-(METHOXY-D3)-PYRAZINE-2-CARBOXAMIDES AND FLUORINATED DERIVATIVES THEREOF AS BACE1 INHIBITORS” (H. Lundbeck A/S, priority 2016, published 2018)
